Assays:
[1] = tested on: murine house dust mite/Freunds complete adjuvant driven model of allergic asthma; assay: Total and differential cell counts in BALF, HDM asthma model (Example 2); type: in vivo, BALB/c mice; details: dexamethasone orally 1 mg/kg BID day 14; 48 hours post challenge
Procedure: Female 7-10 weeks old BALB/c mice were randomly allocated into 7 study groups one day prior to study start and subcutaneously (SC) sensitized to house dust mite (100 μg HDM in 200 μL saline plus Freunds complete adjuvant in 0.9% saline). Mice were then intranasally (IN) challenged with HDM on day 14 (HDM 25 μg in 50 μL of saline). […] The initial dose was administered 60 minutes prior to challenge, and the subsequent doses approximately 6 hours apart. Airway inflammation: At 48 hours post challenge, bronchoalveolar lavage was performed washing the lungs with 3 volumes of cold PBS (0.4; 0.3 and 0.3 mL, total 1 mL). Total and differential leucocyte cell counts were determined on an automated haematological analyser Sysmex XT-2000iV.

[2] = tested on: Dextran Sodium Sulphate (DSS) induced colitis model; assay: Acute 10-day DSS induced colitis model (Example 7); type: in vivo, mice; details: Pred 1 mg/kg orally daily
Procedure: To determine and assess the anti-inflammatory effect of “hBD-2-albumin fusion C-terminal” in an acute 10-day Dextran Sodium Sulphate (DSS) induced colitis model in mice.
“hBD-2-albumin C-terminal” was administered intravenously via the tail vein or subcutaneously with the use of a sterile 25G needle in a dosing volume of 10 ml/kg body weight. The animals received 1 dose daily for 10 […] days. The active control Prednisolone (Pred) was given orally by gavage at a dose of 1 mg/kg in a dosing volume of 10 ml/kg body weight OD.

[3] = tested on: microbiota of the intestine; assay: 16S microbiota analysis, interventional defensin treatment in diet-induced obese mice (Example 11); type: in vivo; details: intervention
Text: The experiment elucidates the effect of hBD2 and HD5 on the microbiota in diet-induced obese mice. A run-in period of 13 weeks where mice were fed a very HFD (60% energy from fat) preceded the intervention. Only mice meeting the criteria of a minimum of 12 gram weight gain (approximately 50% of initial bodyweight) during the run-in period were included in the final analyses. […] They were exposed to all experimental tests, but excluded from the analyses.
Before the intervention all mice were MR scanned. Cages of mice were allocated to experimental groups based on their fat mass. All subsequent measures were paired with data from the same mouse before the intervention. A LFD (low fat diet) reference group was running in parallel. As controls for the intervention 2 additional groups were included: 1 very HFD and 1 LFD. Experimental mice stayed on the very HFD during the intervention. The mice were on the experimental diet for 10 weeks. They were co-housed throughout the experiment, 4 mice per cage, 3 cages per group. All tests ran over 3 days, 1 cage per group per day.
Microbial analyses were carried out to study the microbiota of the intestine. Longitudinal 16S characterization was conducted on 4 paired samples from 60 mice, 240 samples in total. Each mouse was sampled prior to diet change, 1 week post diet change, 4 weeks post diet change and at termination, thus ensuring a thorough characterization of the faecal microbiota as a result of defensin treatment.

[4] = tested on: microbiota of the intestine; assay: 16S microbiota analysis, prophylactic defensin treatment in high fat diet model (Example 10); type: in vivo, mice
Text: Mice were housed in trios, 4 cages per group. Feed intake was registered daily just before lights were turned off at […]. Individual mice were subjected to experimental procedures in altered order both group and cage wise. Mice were kept at room temperature under a 12-hour light/dark cycle at SPF standard conditions. The treatment regime is described in FIG. 38. Mice were fed either a high fat diet (HFD) or a low fat (LF) control diet. The HFD contained 4 subgroups; 1 hBD2, 1 HD5, 1 hBD2/HD5 and 1 standard HFD without supplementation of defensins. Defensin concentration was 1.2 mg hBD2 per kg mouse per day. HD5 was given in equimolar concentration to hBD2. […] Microbial analyses were carried out to study the microbiota of the intestine. Longitudinal 16S characterization was conducted on 4 paired samples from 60 mice, 240 samples in total. Each mouse was sampled prior to diet change, 1 week post diet change, 4 weeks post diet change and at termination, thus ensuring a thorough characterization of the faecal microbiota as a result of defensin treatment.

Molecule: C[C@@H]1C[C@H]2[C@@H]3CCC4=CC(=O)C=C[C@]4(C)[C@@]3(F)[C@@H](O)C[C@]2(C)[C@@]1(O)C(=O)CO [Dexamethasone, reference compound]
- neutrophil count in BALF [1]: failed to inhibit

Molecule: C[C@]12C=CC(=O)C=C1CC[C@@H]1[C@@H]2[C@@H](O)C[C@@]2(C)[C@H]1CC[C@]2(O)C(=O)CO [Pred, Prednisolone]
- histological injury, proximal part of the colon [2]: failed to significantly reduce
- DAI ([2]; day 9, p<0.05): significant inhibition
- histological injury, distal colon ([2]; p<0.01): did reduce

Molecule: human intestinal alpha defensin 5 (ATCYCRTGRCATRESLSGVCEISGRLYRLCCR; listed as Homo sapiens) [HD5]
- abundance of Alloprevotella in the colon ([3]; HD5 p<0.02): increased the abundance of Alloprevotella statistically significantly
- relative abundance of Bifidobacteriaceae in the small intestine ([3]; hBD2 p<0.0001): trend towards HD5 increasing the abundance
- effect on microbial presence / microbial abundance ([4]; 1.2 mg hBD2 per kg per day in feed, HD5 equimolar, combination 50% + 50%): affected primarily the microbial abundance
- abundance of Allobaculum in the small intestine ([4]; prophylaxis, p<0.02): statistically significant increase

Source: US11413328B2, “Methods for treating inflammatory conditions of the lungs” (priority 2016, dated 2022)
